Laboratory results: patent US9139587B2, “N1-pyrazolospiroketone acetyl-CoA carboxylase inhibitors” (Pfizer Inc., priority 2009, dated 2015)

Columns and labels:
[1] = biological target: T1, recombinant human ACC2 (rhACC2) (Homo sapiens, UniProt O00763, V2141I); assay: recombinant hACC2 Transcreener assay (direct inhibition of ACC2 activity); format: biochemical; conditions: Transcreener ADP detection FP assay, 50 μM ATP, 30 μM acetyl-CoA, 50 min at 25° C.
T1 construct: a full length Cytomax clone of ACC2 was purchased from Cambridge Bioscience Limited; made in house; host or cells: CHO cells (tetracycline-induced, pcDNA5 FRT TO-TOPO)
Method in brief: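 Full-length human ACC2 was expressed in CHO cells and avidin-purified. ADP formation was measured by Transcreener FP in 50 mM HEPES pH 7.2 with 30 μM acetyl-CoA, 50 μM ATP, 8 mM KHCO3 and 5 mM citrate. Reactions ran 50 min at 25 °C with 1% DMSO, then 1 h with stop/detect reagent.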

[2] = biological target: T2, recombinant human ACC1 (rhACC1) (Homo sapiens, UniProt Q13085, DEL44-44); assay: recombinant hACC1 Transcreener assay (direct inhibition of ACC1 activity); format: biochemical; conditions: Transcreener ADP detection FP assay, 50 μM ATP, 30 μM acetyl-CoA, 120 min at 25° C.
T2 construct: recombinant baculovirus containing full length human ACC1 cDNA; made in house; host or cells: SF9 insect cells (baculovirus)
Method in brief: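 Full-length human ACC1 from baculovirus-infected SF9 cells, dephosphorylated with lambda phosphatase. Reaction in 50 mM HEPES pH 7.2 with 30 μM acetyl-CoA, 50 μM ATP, 10 mM KHCO3, 120 min at 25° C; ADP detected by Transcreener fluorescence polarisation.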

SMILES	IC50 [1] [nM]	IC50 [2] [nM]
Cc1nn(C)c(C(=O)N2CCC3(CC2)CC(=O)c2c(cnn2C(C)(C)C)C3)c1O [Example 11A-25]	745	331
CC(C)(C)n1ncc2c1C(=O)CC1(CCN(C(=O)c3ccnc(-c4cc[nH]n4)c3)CC1)C2 [Example 11A-26]	41.5	130
Cc1ccn2cc(C(=O)N3CCC4(CC3)CC(=O)c3c(cnn3C(C)(C)C)C4)nc2c1 [Example 11A-27]	309	584
CNc1nc(C)ccc1C(=O)N1CCC2(CC1)CC(=O)c1c(cnn1C(C)(C)C)C2 [Example 11A-30]	106	224
CC(C)n1ncc2c1C(=O)CC1(CCN(C(=O)c3cnc4cn[nH]c4c3)CC1)C2 [Example 11A-31]	83.4	117
CC(C)(C)n1ncc2c1C(=O)CC1(CCN(C(=O)c3ccn4cncc4c3)CC1)C2 [Example 11A-32]	96.4	155
CC(C)n1ncc2c1C(=O)CC1(CCN(C(=O)c3c[nH]c4ccnn4c3=O)CC1)C2 [Example 11A-35]	2130	3340
Cc1cc(C(=O)N2CCC3(CC2)CC(=O)c2c(cnn2C(C)(C)C)C3)c(N)c(C)n1 [Example 11A-38]	1030	2170
Cc1ccc(O)c(C(=O)N2CCC3(CC2)CC(=O)c2c(cnn2C(C)(C)C)C3)n1 [Example 11A-44]	4600	4170
CC(C)(C)n1ncc2c1C(=O)CC1(CCN(C(=O)c3cn4cccc4cn3)CC1)C2 [Example 11A-45]	745	1500
CC(C)n1ncc2c1C(=O)CC1(CCN(C(=O)c3cc4ncccc4[nH]3)CC1)C2 [Example 11A-48]	41.2	78.9
Cc1ccc(O)c(C(=O)N2CCC3(CC2)CC(=O)c2c(cnn2C(C)C)C3)n1 [Example 11A-49]	4910	13500
CC(C)(C)n1ncc2c1C(=O)CC1(CCN(C(=O)c3cnc(-c4ccccn4)[nH]3)CC1)C2 [Example 11A-50]	371	581
CC(C)(C)n1ncc2c1C(=O)CC1(CCN(C(=O)c3ccc(-c4ncc[nH]4)cc3)CC1)C2 [Example 11A-53]	22.8	68.3
CC(C)n1ncc2c1C(=O)CC1(CCN(C(=O)c3ccc4c(c3)ncn4C)CC1)C2 [Example 11A-55]	60.4	213
CC(C)n1ncc2c1C(=O)CC1(CCN(C(=O)c3cc4cnccc4[nH]3)CC1)C2 [Example 11A-56]	359	1010
CC(C)(C)n1ncc2c1C(=O)CC1(CCN(C(=O)c3ccc(N4CCOCC4)cn3)CC1)C2 [Example 11A-57]	2330	9230
CC(C)(C)n1ncc2c1C(=O)CC1(CCN(C(=O)c3cnc4cn[nH]c4c3)CC1)C2 [Example 11A-58]	73.6	131
CC(C)(C)n1ncc2c1C(=O)CC1(CCN(C(=O)c3ccc(-n4cccn4)nc3)CC1)C2 [Example 11A-59]	80.1	86.8
CC(C)n1ncc2c1C(=O)CC1(CCN(C(=O)c3cc(-c4cccnc4)[nH]n3)CC1)C2 [Example 11A-62]	112	338
CC(C)(C)n1ncc2c1C(=O)CC1(CCN(C(=O)c3cccc(-c4ncc[nH]4)c3)CC1)C2 [Example 11A-64]	24.4	105
CC(C)n1ncc2c1C(=O)CC1(CCN(C(=O)c3ccc4[nH]cnc4n3)CC1)C2 [Example 11A-65]	388	1080
CC(C)n1ncc2c1C(=O)CC1(CCN(C(=O)c3c[nH]c4c(cnn4C)c3=O)CC1)C2 [Example 11A-66]	1390	4080
CC(C)(C)n1ncc2c1C(=O)CC1(CCN(C(=O)c3ccn4ccnc4c3)CC1)C2 [Example 11A-67]	139	203

More lines, in order of falling IC50 [1], values ahead:

IC50 [1] [nM]	IC50 [2] [nM]	SMILES
2850	11700	CC(C)n1ncc2c1C(=O)CC1(CCN(C(=O)c3ccc(N4CCOCC4)cn3)CC1)C2 [Example 11A-42]
2550	8720	CC(C)n1ncc2c1C(=O)CC1(CCN(C(=O)c3ccc(-n4ccnc4)cn3)CC1)C2 [Example 11A-63]
1350	2570	CC(C)(C)n1ncc2c1C(=O)CC1(CCN(C(=O)c3ccc4cnccc4n3)CC1)C2 [Example 11A-61]
836	6060	CC(C)n1ncc2c1C(=O)CC1(CCN(C(=O)c3ccc(N4CCOCC4)nc3)CC1)C2 [Example 11A-24]
638	2140	CC(C)n1ncc2c1C(=O)CC1(CCN(C(=O)c3cn4cccc4cn3)CC1)C2 [Example 11A-34]
588	1140	Cc1ccn2cc(C(=O)N3CCC4(CC3)CC(=O)c3c(cnn3C(C)C)C4)nc2c1 [Example 11A-40]
463	1030	CC(C)n1ncc2c1C(=O)CC1(CCN(C(=O)c3cnc(-c4ccccn4)[nH]3)CC1)C2 [Example 11A-37]
391	917	CC(C)n1ncc2c1C(=O)CC1(CCN(C(=O)c3cn4ccccc4n3)CC1)C2 [Example 11A-28]
373	850	CC(C)n1ncc2c1C(=O)CC1(CCN(C(=O)c3cc4cccn4cn3)CC1)C2 [Example 11A-47]
295	1500	CC(C)n1ncc2c1C(=O)CC1(CCN(C(=O)c3ccc(-n4cncn4)cc3)CC1)C2 [Example 11A-54]
288	580	CC(C)(C)n1ncc2c1C(=O)CC1(CCN(C(=O)c3cc4cccn4cn3)CC1)C2 [Example 11A-69]
285	825	CC(C)(C)n1ncc2c1C(=O)CC1(CCN(C(=O)c3ccc4[nH]cnc4n3)CC1)C2 [Example 11A-68]
176	550	CC(C)n1ncc2c1C(=O)CC1(CCN(C(=O)c3ccn4ccnc4c3)CC1)C2 [Example 11A-52]
171	404	CC(C)n1ncc2c1C(=O)CC1(CCN(C(=O)c3ccn4cncc4c3)CC1)C2 [Example 11A-60]
108	110	CC(C)(C)n1ncc2c1C(=O)CC1(CCN(C(=O)c3cc4cnccc4[nH]3)CC1)C2 [Example 11A-51]
97.1	391	CNc1nc(C)ccc1C(=O)N1CCC2(CC1)CC(=O)c1c(cnn1C(C)C)C2 [Example 11A-46]
93.1	272	CC(C)n1ncc2c1C(=O)CC1(CCN(C(=O)c3cnc4[nH]cnc4c3)CC1)C2 [Example 11A-33]
81.3	69	CC(C)(C)n1ncc2c1C(=O)CC1(CCN(C(=O)c3cnc4[nH]cnc4c3)CC1)C2 [Example 11A-39]
75.6	194	CC(C)(C)n1ncc2c1C(=O)CC1(CCN(C(=O)c3cc4ccccn4c3)CC1)C2 [Example 11A-36]
64.5	151	CC(C)(C)n1ncc2c1C(=O)CC1(CCN(C(=O)c3cc(-c4cccnc4)[nH]n3)CC1)C2 [Example 11A-29]
45.6	143	CC(C)n1ncc2c1C(=O)CC1(CCN(C(=O)c3cc4ccccn4c3)CC1)C2 [Example 11A-43]
30.1	122	CC(C)n1ncc2c1C(=O)CC1(CCN(C(=O)c3cccc(-c4ncc[nH]4)c3)CC1)C2 [Example 11A-41]
